From patent publication US10745395B2, “Compounds for their use as drugs for the treatment and/or the prevention of infection(s) caused by biofilm-forming bacteria” (CENTRE NATIONAL DE LA RECHERCHE SCIENTIFIQUE, priority 2014, dated 2020)

Experiments:
Type in all cases: cell-based, Pseudomonas aeruginosa
[1] = tested on: P. aeruginosa strain PAR 20 biofilm; assay: Early biofilm model, Congo red staining; conditions: for absorbance (Congo red, biofilm formation): early biofilm, 0.9 mM, 492 nm
Protocol: (§1) P. aeruginosa biofilm was set-up in sterile plastic 96-well plates with adherent surface (Greiner Bio-One, USA).
(§2) Twenty microliter quantities of the bacterial stock suspensions, prepared as described above, were added to each well followed with 180 μl of sterile TSB. Final concentration of the bacteria was 1×10^8 CFU/ml.
(§3) The plates were centrifuged for 10 minutes at 2000 rpm to sediment bacteria on the bottom of each well and then incubated for 72 hours (37° C., aerobic conditions).
(§4) Biofilm quantity was determined using Congo red dye according to a modified procedure described by Allison et al. (Allison G C, Sutherland I W. A staining technique for bacteria and its correlation to extracellular carbohydrate production. J Microbiol Meth 2, 93-99 (1984)).
(§5) Briefly, at different time points (0, 6, 18, 24, 48 and 72 hours), the culture medium was gently removed from wells by using the pipette and immediately 200 μl of 0.1% Congo red solution was added. The plates were left for 30 minutes at room temperature and then 10 minutes before the end of staining, the plate was centrifuged for 10 minutes at 2000 rpm and then washed twice with buffered saline to remove unbound dye. Absorbance was measured at λ=492 nm wavelength using spectrophotometer (Awarness Technology Inc., Palm City, Fla., USA). All measurements were performed in triplicates and mean values±SD are given.
(§6) Early biofilm model: formation of early biofilm under influence of the tested substances was observed by filling wells of a 96-well plate with 20 μl of P. aeruginosa suspension and 180 μl of TSB, as described above. Tested iminosugars (compounds 1, 2, 3 and 4) were added immediately after setting-up the bacteria at a final concentration of 0.9 mM. Then, the plate was gently mixed and incubated for 48 hours at 37° C.
(§7) Biofilm formation and the number of viable bacteria were checked in parallel in the following time intervals: 0, 0.5, 8, 24, 48 hours, in accordance with the procedure described above. Biofilm thickness was estimated by staining it with Cango Red and measuring optical density while number of viable bacteria was performed using the standard viable count method. (Allison G C, Sutherland I W. A staining technique for bacteria and its correlation to extracellular carbohydrate production. J Microbiol Meth 2, 93-99 (1984)).
(§8) P. aeruginosa suspension cultures in TSB broth alone were used as a control.

[2] = tested on: P. aeruginosa strain PAR 5 biofilm; assay: Early biofilm model, Congo red staining; conditions: for absorbance (Congo red, biofilm formation): 0.9 mM, 492 nm
Protocol: as §1, §2, §3, §4, §5, §6, §7, §8

[3] = tested on: P. aeruginosa strain PAR 50 biofilm; assay: Early biofilm model, Congo red staining; conditions: for absorbance (Congo red, biofilm formation): early biofilm, 0.9 mM, 492 nm
Protocol: as §1, §2, §3, §4, §5, §6, §7, §8

[4] = tested on: P. aeruginosa strain PAR 20 biofilm; assay: Mature biofilm model, Congo red staining; conditions: for absorbance (Congo red, biofilm development): mature biofilm, compound added 48 h after induction of biofilm
Protocol: as §4, §5
(§9) Mature biofilm model: the tested substances were added 48 hours after adherence of bacteria to the wells in a 96-well plate. The growth conditions of P. aeruginosa were exactly the same, as described above for the early biofilm model.
(§10) After the addition of iminosugars (compounds 1, 2, 3 and 4), the biofilm formation and the number of viable bacteria were checked in the following time intervals: 48, 48.5, 56, 72, 96 hours.

[5] = tested on: P. aeruginosa strain PAR 5 biofilm; assay: Mature biofilm model, Congo red staining; conditions: for absorbance (Congo red, biofilm development): mature biofilm, compound added 48 h after induction of biofilm
Protocol: as §4, §5, §9, §10

[6] = tested on: P. aeruginosa strain PAR 50 biofilm; assay: Mature biofilm model, Congo red staining; conditions: for absorbance (Congo red, biofilm development): mature biofilm, compound added 48 h after induction of biofilm
Protocol: as §4, §5, §9, §10

[7] = tested on: P. aeruginosa strain PAR 20; assay: Number of viable bacteria in early and mature biofilm (viable count)
Protocol: as §7, §10
(§11) Numbers of viable bacteria contained in the early and mature biofilm were estimated on separate plates with wells filled with tested P. aeruginosa strains as described above (PAR 5, PAR 20, PAR 50).
(§12) At the same time intervals, biofilm content in each well was removed and mixed by multiple pippeting and transferred to sterile tubes. Then decimal dilutions of the bacterial suspension were made in TSB broth, plated on McConkey Agar (Oxoid), and incubated at 37° C. for 24 hours.
(§13) Numbers of colonies grown on platter were counted and total numbers of the viable bacteria calculated as colony forming units (CFU) per ml.
(§14) The results depict logs of CFU/ml for three P. aeruginosa strains: PAR 5, PAR 20 and PAR 50 measured at different time intervals (0 hours, 8 hours, 24 hours, 48 hours, 56 hours, 72 hours and 96 hours). The detection limit is 100 CFU/ml.

[8] = tested on: P. aeruginosa strain PAR 50; assay: as above
Protocol: as §7, §10, §11, §12, §13, §14

[9] = tested on: P. aeruginosa strain PAR 5; assay: as above
Protocol: as §7, §10, §11, §12, §13, §14

[10] = tested on: P. aeruginosa strain PAR 5 biofilm; assay: Reduction of biofilm growth (percent vs culture control)
From the text: FIG. 4A represents the effect of the tested compounds (1, 2, 3 and 4) on exopolysaccharide biosynthesis in the early stages and mature P. aeruginosa biofilm formation, strain PAR 5. The abscissa represents the time (in hours) in order to differentiate early biofilm and mature biofilm, and the ordinate represents the percentage of the biofilm reduction.
as §6, §9
(§15) The effect of the tested compounds (1, 2, 3 and 4) on the reduction of biofilm growth has also been studied on the three P. aeruginosa strains PAR 5, PAR 20, PAR 50.
(§16) (Percent decrease in biofilm thickness was obtained as a mean value from 3 consecutive measurements of the Congo Red stained biofilm using spectrophotometer after addition of the tested iminosugars in comparison to control regarded as 100%).

[11] = tested on: P. aeruginosa strain PAR 20 biofilm; assay: as above
From the text: FIG. 4B represents the effect of the tested compounds (1, 2, 3 and 4) on exopolysaccharide biosynthesis in the early stages and mature P. aeruginosa biofilm formation, strain PAR 20. The abscissa represents the time (in hours) in order to differentiate early biofilm and mature biofilm, and the ordinate represents the percentage of the biofilm reduction.
as §6, §9, §15, §16

[12] = tested on: P. aeruginosa strain PAR 50 biofilm; assay: as above
From the text: FIG. 4C represents the effect of the tested compounds (1, 2, 3 and 4) on exopolysaccharide biosynthesis in the early stages and mature P. aeruginosa biofilm formation, strain PAR 50. The abscissa represents the time (in hours) in order to differentiate early biofilm and mature biofilm, and the ordinate represents the percentage of the biofilm reduction.
as §6, §9, §15, §16

[13] = in comparison with culture control

## OCC(O)C[C@H]1NC[C@H](O)[C@H](O)[C@H]1O (stereo partly drawn) [Compound 2, β-1-C-(2,3-dihydroxypropyl)-1,5-dideoxy-1,5-imino-L-arabinitol]
[1]; 8 hours
  absorbance (Congo red, biofilm formation): about 0.75 a.u.
[1]; 24 hours
  absorbance (Congo red, biofilm formation): about 0.9 a.u.
[1]; 48 hours
  absorbance (Congo red, biofilm formation): about 0.9 a.u.
[1]; [13]
  effect on formation of an early biofilm: inhibit the formation of an early biofilm
[2]; early biofilm
  biofilm formation at 8 hours, 24 hours and 48 hours: no biofilm formation
[2]; early biofilm, 8 hours
  absorbance (Congo red, biofilm formation): about 0.25 a.u.
[2]; early biofilm, 24 hours
  absorbance (Congo red, biofilm formation): about 0.25 a.u.
[2]; early biofilm, 48 hours
  absorbance (Congo red, biofilm formation): about 0.25 a.u.
[2]; [13]
  effect on formation of an early biofilm: inhibit the formation of an early biofilm
[3]; 8 hours
  absorbance (Congo red, biofilm formation): about 0.8 a.u.
[3]; 24 hours
  absorbance (Congo red, biofilm formation): about 0.7 a.u.
[3]; 48 hours
  absorbance (Congo red, biofilm formation): about 1.1 a.u.
[3]; [13]
  effect on formation of an early biofilm: inhibit the formation of an early biofilm
[4]
  influence on mature biofilm formation: weak influence
[4]; 48 hours
  absorbance (Congo red, biofilm development): about 0.6 a.u.
[4]; 56 hours
  absorbance (Congo red, biofilm development): about 0.7 a.u.
[4]; 72 hours
  absorbance (Congo red, biofilm development): about 1.1 a.u.
[4]; 96 hours
  absorbance (Congo red, biofilm development): about 2.0 a.u.
[5]
  influence on mature biofilm formation: weak influence
[5]; 48 hours
  absorbance (Congo red, biofilm development): about 0.75 a.u.
[5]; 56 hours
  absorbance (Congo red, biofilm development): about 1.0 a.u.
[5]; 72 hours
  absorbance (Congo red, biofilm development): about 1.25 a.u.
[5]; 96 hours
  absorbance (Congo red, biofilm development): about 1.5 a.u.
[6]
  influence on mature biofilm formation: weak influence
[6]; 48 hours
  absorbance (Congo red, biofilm development): about 2.0 a.u.
[6]; 56 hours
  absorbance (Congo red, biofilm development): about 1.75 a.u.
[6]; 72 hours
  absorbance (Congo red, biofilm development): about 1.75 a.u.
[6]; 96 hours
  absorbance (Congo red, biofilm development): about 2.0 a.u.
[7]; early biofilm, 0 h
  number of viable P. aeruginosa: 2 × 10^6 CFU/ml
[7]; early biofilm, 8 h
  number of viable P. aeruginosa: 4 × 10^7 CFU/ml
[7]; early biofilm, 24 h
  number of viable P. aeruginosa: 3 × 10^8 CFU/ml
[7]; early biofilm, 48 h
  number of viable P. aeruginosa: 1 × 10^9 CFU/ml
[7]; mature biofilm, 56 h
  number of viable P. aeruginosa: 4 × 10^8 CFU/ml
[7]; mature biofilm, 72 h
  number of viable P. aeruginosa: 3 × 10^7 CFU/ml
[7]; mature biofilm, 96 h
  number of viable P. aeruginosa: 3 × 10^8 CFU/ml
[8]; early biofilm, 0 h
  number of viable P. aeruginosa: 3 × 10^7 CFU/ml
[8]; early biofilm, 8 h
  number of viable P. aeruginosa: 2 × 10^8 CFU/ml
[8]; early biofilm, 24 h
  number of viable P. aeruginosa: 7 × 10^8 CFU/ml
[8]; early biofilm, 48 h
  number of viable P. aeruginosa: 1 × 10^8 CFU/ml
[8]; mature biofilm, 56 h
  number of viable P. aeruginosa: 6 × 10^9 CFU/ml
[8]; mature biofilm, 72 h
  number of viable P. aeruginosa: 1 × 10^9 CFU/ml
[8]; mature biofilm, 96 h
  number of viable P. aeruginosa: 9 × 10^9 CFU/ml
[9]; early biofilm, 0 h
  number of viable P. aeruginosa: 8 × 10^6 CFU/ml
[9]; early biofilm, 8 h
  number of viable P. aeruginosa: 2 × 10^7 CFU/ml
[9]; early biofilm, 24 h
  number of viable P. aeruginosa: 1 × 10^7 CFU/ml
[9]; early biofilm, 48 h
  number of viable P. aeruginosa: 1 × 10^7 CFU/ml
[9]; mature biofilm, 56 h
  number of viable P. aeruginosa: 4 × 10^8 CFU/ml
[9]; mature biofilm, 72 h
  number of viable P. aeruginosa: 2 × 10^8 CFU/ml
[9]; mature biofilm, 96 h
  number of viable P. aeruginosa: 5 × 10^8 CFU/ml
[10]; 8 hours of incubation
  reduction of biofilm growth: about 90%
[10]; 24 hours of incubation
  reduction of biofilm growth: about 90%
[10]; 48 hours of incubation
  reduction of biofilm growth: about 25%
[10]; 72 hours of incubation
  reduction of biofilm growth: about 10%
[10]; notably an early biofilm
  effect on biofilm growth: can reduce the biofilm growth
[11]; 8 hours of incubation
  reduction of biofilm growth: about 45%
[11]; 24 hours of incubation
  reduction of biofilm growth: about 45%
[11]; 48 hours of incubation
  reduction of biofilm growth: about 0%
[11]; 72 hours of incubation
  reduction of biofilm growth: about 0%
[11]; notably an early biofilm
  effect on biofilm growth: can reduce the biofilm growth
[12]; 8 hours of incubation
  reduction of biofilm growth: about 50%
[12]; 24 hours of incubation
  reduction of biofilm growth: about 70%
[12]; 48 hours of incubation
  reduction of biofilm growth: about 0%
[12]; 72 hours of incubation
  reduction of biofilm growth: about 20%
[12]; notably an early biofilm
  effect on biofilm growth: can reduce the biofilm growth
